Source: US10144706B2 (BRISTOL-MYERS SQUIBB COMPANY, priority 2016, dated 2018)
Where two headings read alike, the source gives them in different places.

Target: T1, PD-1/PD-L1 interaction (PD-1-Ig / PD-L1-His) (Homo sapiens, UniProt Q9NZQ7)
T1 construct: hPDL1(18-239)-TVMV-His; TVMV protease site linker (C); made in house; host or cells: HEK293T
Assay: PD-1/PD-L1 Homogenous Time-Resolved Fluorescence (HTRF) binding assay
Details: PD-L1-His 10 nM, PD-1-Ig 20 nM, read-out: Range or IC50
Procedure, shortened: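 HTRF detection used 1 nM europium-cryptate anti-Ig and 20 nM APC anti-His. Compounds first saw 10 nM PD-L1-His for 15 min, and 20 nM PD-1-Ig was then added for another 15 min. Buffer was dPBS plus 0.1% BSA and 0.05% Tween-20. All concentrations are final.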

T1 sequence (Q9NZQ7 with tags, fused parts or gaps): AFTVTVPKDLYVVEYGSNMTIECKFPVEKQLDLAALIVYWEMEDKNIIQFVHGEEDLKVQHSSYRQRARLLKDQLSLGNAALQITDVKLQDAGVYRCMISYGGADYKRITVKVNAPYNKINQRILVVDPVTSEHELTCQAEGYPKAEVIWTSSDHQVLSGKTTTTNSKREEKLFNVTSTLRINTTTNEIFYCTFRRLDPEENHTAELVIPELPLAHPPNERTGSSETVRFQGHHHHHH

SMILES | IC50 (numeric IC50) | IC50 (IC50 range class)
COC(=O)[C@@H](NCc1cc(Cl)c(OCc2cccc(-c3cccc(COc4cc(OCc5cncc(C#N)c5)c(CN[C@H](C(=O)OC)[C@@H](C)OC(C)(C)C)cc4Cl)c3C)c2C)cc1OCc1cncc(C#N)c1)[C@@H](C)OC(C)(C)C [Example 40950] | 168 nM | 
Cc1c(COc2cc(OCc3cncc(C#N)c3)c(CN[C@@H](C(=O)O)[C@H](C)OCc3ccccc3)cc2Cl)cccc1-c1cccc(COc2cc(OCc3cncc(C#N)c3)c(CN[C@@H](C(=O)O)[C@H](C)OCc3ccccc3)cc2Cl)c1C [Example 40960] |  | 20.1 to 90 nM
Cc1c(COc2cc(OCc3cncc(C#N)c3)c(CN[C@H](C(=O)O)[C@@H](C)OCc3ccccc3)cc2Cl)cccc1-c1cccc(COc2cc(OCc3cncc(C#N)c3)c(CN[C@H](C(=O)O)[C@@H](C)OCc3ccccc3)cc2Cl)c1C [Example 41050] |  | 20.1 to 90 nM
COc1ccc(CNCc2cc(Cl)c(OCc3cccc(-c4cccc(COc5cc(OCc6cncc(C#N)c6)c(CNCc6ccc(OC)cc6OC)cc5Cl)c4C)c3C)cc2OCc2cncc(C#N)c2)c(OC)c1 [Example 41230] |  | 20.1 to 90 nM
N#Cc1cncc(COc2cc(OCc3cccc(-c4cccc(COc5cc(OCc6cncc(C#N)c6)c(CN6CCCC[C@H]6C(=O)O)cc5Cl)c4)c3)c(Cl)cc2CO)c1 [Example 50020] |  | 20.1 to 90 nM
N#Cc1cncc(COc2cc(OCc3cccc(-c4cccc(COc5cc(OCc6cncc(C#N)c6)c(CN6CCC(O)(C(=O)O)CC6)cc5Cl)c4)c3)c(Cl)cc2CO)c1 [Example 50040] | 115 nM | 
Cc1c(COc2cc(OCc3cncc(C#N)c3)c(CO)cc2Cl)cccc1-c1cccc(COc2cc(OCc3cncc(C#N)c3)c(CNCC(O)CC(=O)O)cc2Cl)c1C (stereo not shown) [Example 50070] |  | 0.04 to 20 nM
Cc1c(COc2cc(OCc3cncc(C#N)c3)c(CO)cc2Cl)cccc1-c1cccc(COc2cc(OCc3cncc(C#N)c3)c(CN3CCOC[C@@H]3C(=O)O)cc2Cl)c1C [Example 50100] |  | 0.04 to 20 nM
Cc1c(COc2cc(OCc3cncc(C#N)c3)c(CO)cc2Cl)cccc1-c1cccc(COc2cc(OCc3cncc(C#N)c3)c(CN3CCCC(C(=O)O)C3)cc2Cl)c1C (stereo not shown) [Example 50110] |  | 0.04 to 20 nM
Cc1c(COc2cc(OCc3cncc(C#N)c3)c(CO)cc2Cl)cccc1-c1cccc(COc2cc(OCc3cncc(C#N)c3)c(CN3CCC[C@H](C(=O)O)C3)cc2Cl)c1C [Example 50120] |  | 0.04 to 20 nM
Cc1c(COc2cc(OCc3cncc(C#N)c3)c(CO)cc2Cl)cccc1-c1cccc(COc2cc(OCc3cncc(C#N)c3)c(CN[C@@H](CCO)C(=O)O)cc2Cl)c1C [Example 50150] |  | 0.04 to 20 nM
Cc1c(COc2cc(OCc3cncc(C#N)c3)c(CO)cc2Cl)cccc1-c1cccc(COc2cc(OCc3cncc(C#N)c3)c(CN(CC(C)C)C(CCO)C(=O)O)cc2Cl)c1C (stereo not shown) [Example 50170] |  | 0.04 to 20 nM
Cc1c(COc2cc(OCc3cncc(C#N)c3)c(CO)cc2Cl)cccc1-c1cccc(COc2cc(OCc3cncc(C#N)c3)c(CN[C@@H](C(=O)O)[C@H](C)O)cc2Cl)c1C [Example 50180] |  | 0.04 to 20 nM
Cc1c(COc2cc(OCc3cncc(C#N)c3)c(CO)cc2Cl)cccc1-c1cccc(COc2cc(OCc3cncc(C#N)c3)c(CN[C@@H](C(=O)O)[C@@H](C)O)cc2Cl)c1C [Example 50190] |  | 0.04 to 20 nM
Cc1c(COc2cc(OCc3cncc(C#N)c3)c(CO)cc2Cl)cccc1-c1cccc(COc2cc(OCc3cncc(C#N)c3)c(CNC(C(=O)O)C(C)O)cc2Cl)c1C (stereo not shown) [Example 50200] |  | 0.04 to 20 nM
Cc1c(COc2cc(OCc3cncc(C#N)c3)c(CO)cc2Cl)cccc1-c1cccc(COc2cc(OCc3cncc(C#N)c3)c(CN[C@H](CCO)C(=O)O)cc2Cl)c1C [Example 50210] |  | 0.04 to 20 nM
Cc1c(COc2cc(OCc3cncc(C#N)c3)c(CO)cc2Cl)cccc1-c1cccc(COc2cc(OCc3cncc(C#N)c3)c(CNC(C(=O)O)C(=O)O)cc2Cl)c1C [Example 50220] |  | 0.04 to 20 nM
Cc1c(COc2cc(OCc3cncc(C#N)c3)c(CO)cc2Cl)cccc1-c1cccc(COc2cc(OCc3cncc(C#N)c3)c(CN[C@H](C(=O)O)[C@H](C)O)cc2Cl)c1C [Example 50230] |  | 0.04 to 20 nM
Cc1c(COc2cc(OCc3cncc(C#N)c3)c(CO)cc2Cl)cccc1-c1cccc(COc2cc(OCc3cncc(C#N)c3)c(CN[C@H](CO)C(=O)O)cc2Cl)c1C [Example 50240] |  | 0.04 to 20 nM
Cc1c(COc2cc(OCc3cncc(C#N)c3)c(CO)cc2Cl)cccc1-c1cccc(COc2cc(OCc3cncc(C#N)c3)c(CN[C@@H](C(=O)O)[C@H](C)O)cc2Cl)c1C [Example 50250] |  | 0.04 to 20 nM
Cc1c(COc2cc(OCc3cncc(C#N)c3)c(CO)cc2Cl)cccc1-c1cccc(COc2cc(OCc3cncc(C#N)c3)c(CNC(C(=O)O)C(=O)O)cc2Cl)c1C [Example 50270] | 23 nM | 
Cc1c(COc2cc(OCc3cncc(C#N)c3)c(CO)cc2Cl)cccc1-c1cccc(COc2cc(OCc3cncc(C#N)c3)c(CNCC(O)C(=O)O)cc2Cl)c1C (stereo not shown) [Example 50300] |  | 0.04 to 20 nM
Cc1c(COc2cc(OCc3cncc(C#N)c3)c(CO)cc2Cl)cccc1-c1cccc(COc2cc(OCc3cncc(C#N)c3)c(CN[C@@H](CO)CC(=O)O)cc2Cl)c1C [Example 50310] |  | 20.1 to 90 nM
Cc1c(COc2cc(OCc3cncc(C#N)c3)c(CO)cc2Cl)cccc1-c1cccc(COc2cc(OCc3cncc(C#N)c3)c(CN[C@H](CO)CC(=O)O)cc2Cl)c1C [Example 50330] |  | 0.04 to 20 nM
Cc1c(COc2cc(OCc3cncc(C#N)c3)c(CO)cc2Cl)cccc1-c1cccc(COc2cc(OCc3cncc(C#N)c3)c(CN[C@H](C(=O)O)[C@@H](C)[C@H](C)O)cc2Cl)c1C [Example 50340] |  | 0.04 to 20 nM
Cc1c(COc2cc(OCc3cncc(C#N)c3)c(CO)cc2Cl)cccc1-c1cccc(COc2cc(OCc3cncc(C#N)c3)c(CN[C@@H](CCO)C(=O)O)cc2Cl)c1C [Example 50360] |  | 0.04 to 20 nM
CC(CO)(NCc1cc(Cl)c(OCc2cccc(-c3cccc(COc4cc(OCc5cncc(C#N)c5)c(CO)cc4Cl)c3Cl)c2Cl)cc1OCc1cncc(C#N)c1)C(=O)O (stereo not shown) [Example 50380] |  | 0.04 to 20 nM
C[C@](CO)(NCc1cc(Cl)c(OCc2cccc(-c3cccc(COc4cc(OCc5cncc(C#N)c5)c(CO)cc4Cl)c3Cl)c2Cl)cc1OCc1cncc(C#N)c1)C(=O)O [Example 50400] |  | 0.04 to 20 nM
CC(=O)c1cc(Cl)c(OCc2cccc(-c3cccc(COc4cc(OCc5cncc(C#N)c5)c(CN[C@](C)(CO)C(=O)O)cc4Cl)c3C)c2C)cc1OCc1cncc(C#N)c1 [Example 60010] |  | 0.04 to 20 nM

Other lines, results leading:

IC50 (numeric IC50) | IC50 (IC50 range class) | SMILES
 | 0.04 to 20 nM | Cc1c(COc2cc(OCc3cncc(C#N)c3)c(CN(Cc3cncs3)C(CCO)C(=O)O)cc2Cl)cccc1-c1cccc(COc2cc(OCc3cncc(C#N)c3)c(CN(Cc3cncs3)C(CCO)C(=O)O)cc2Cl)c1C (stereo not shown) [Example 40990]
 | 0.04 to 20 nM | Cc1c(COc2cc(OCc3cncc(C#N)c3)c(CN(CCC(C)C)C(CCO)C(=O)O)cc2Cl)cccc1-c1cccc(COc2cc(OCc3cncc(C#N)c3)c(CN(CCC(C)C)C(CCO)C(=O)O)cc2Cl)c1C (stereo not shown) [Example 41010]
 | 0.04 to 20 nM | Cc1c(COc2cc(OCc3cncc(C#N)c3)c(CN(CC3CCCO3)C(CCO)C(=O)O)cc2Cl)cccc1-c1cccc(COc2cc(OCc3cncc(C#N)c3)c(CN(CC3CCCO3)C(CCO)C(=O)O)cc2Cl)c1C (stereo not shown) [Example 41020]
 | 0.04 to 20 nM | Cc1c(COc2cc(OCc3cncc(C#N)c3)c(CNC(CCO)C(=O)O)cc2Cl)cccc1-c1cccc(COc2cc(OCc3cncc(C#N)c3)c(CN(CC3CCCO3)C(CCO)C(=O)O)cc2Cl)c1C (stereo not shown) [Example 41030]
 | 0.04 to 20 nM | Cc1c(COc2cc(OCc3cncc(C#N)c3)c(CN[C@H](CCO)C(=O)O)cc2Cl)cccc1-c1cccc(COc2cc(OCc3cncc(C#N)c3)c(CN[C@H](CCO)C(=O)O)cc2Cl)c1C [Example 41090]
 | 0.04 to 20 nM | Cc1c(COc2cc(OCc3cncc(C#N)c3)c(CN[C@H](C(=O)O)[C@@H](C)O)cc2Cl)cccc1-c1cccc(COc2cc(OCc3cncc(C#N)c3)c(CN[C@H](C(=O)O)[C@@H](C)O)cc2Cl)c1C [Example 41100]
 | 0.04 to 20 nM | Cc1c(COc2cc(OCc3cncc(C#N)c3)c(CN[C@H](C(=O)O)[C@H](C)O)cc2Cl)cccc1-c1cccc(COc2cc(OCc3cncc(C#N)c3)c(CN[C@H](C(=O)O)[C@H](C)O)cc2Cl)c1C [Example 41110]
 | 0.04 to 20 nM | Cc1c(COc2cc(OCc3cncc(C#N)c3)c(CN[C@@H](C(=O)O)[C@H](C)O)cc2Cl)cccc1-c1cccc(COc2cc(OCc3cncc(C#N)c3)c(CN[C@@H](C(=O)O)[C@@H](C)O)cc2Cl)c1C [Example 41130]
 | 0.04 to 20 nM | C[C@@](CO)(NCc1cc(Cl)c(OCc2cccc(-c3cccc(COc4cc(OCc5cncc(C#N)c5)c(CN[C@@](C)(CO)C(=O)O)cc4Cl)c3Cl)c2Cl)cc1O)C(=O)O [Example 41170]
 | 0.04 to 20 nM | N#Cc1cncc(COc2cc(OCc3cccc(-c4cccc(COc5cc(O)c(CNC(CCO)C(=O)O)cc5Cl)c4Cl)c3Cl)c(Cl)cc2CNC(CCO)C(=O)O)c1 (stereo not shown) [Example 41180]
 | 0.04 to 20 nM | C[C@](CO)(NCc1cc(Cl)c(OCc2cccc(-c3cccc(COc4cc(OCc5cncc(C#N)c5)c(CN[C@](C)(CO)C(=O)O)cc4Cl)c3Cl)c2Cl)cc1OCc1cncc(C#N)c1)C(=O)O [Example 41190]
 | 0.04 to 20 nM | CC(CO)(NCc1cc(Cl)c(OCc2cccc(-c3cccc(COc4cc(OCc5cncc(C#N)c5)c(CNC(C)(CO)C(=O)O)cc4Cl)c3Cl)c2Cl)cc1OCc1cncc(C#N)c1)C(=O)O (stereo not shown) [Example 41200]
 | 0.04 to 20 nM | Cc1c(COc2cc(OCc3cncc(C#N)c3)c(CN[C@](C)(CO)C(=O)O)cc2Cl)cccc1-c1cccc(COc2cc(OCc3cncc(C#N)c3)c(CN[C@](C)(CO)C(=O)O)cc2Cl)c1C [Example 41210]
 | 0.04 to 20 nM | Cc1c(COc2cc(OCc3cncc(C#N)c3)c(CO)cc2Cl)cccc1-c1cccc(COc2cc(OCc3cncc(C#N)c3)c(CNC(CO)(Cc3ccccc3)C(=O)O)cc2Cl)c1C (stereo not shown) [Example 50060]
